These results are taken from patent publication US20260138985A1, “Azepino-Indoles for the Treatment of Neurological and Psychiatric Disorders” (Terran Biosciences Inc., priority 2021, published 2026).

By inhibition is commonly meant the relative decrease from the control value, in per cent. For orientation: half-life means the time needed for the level to fall by half in the phase considered. The CLint scaled is the capacity of the preparation to metabolise the compound, expressed as a volume cleared per time.

For one data set, the target named is T1, 5-HT2B receptor (Homo sapiens, UniProt P41595).
T1 construct: host or cells: unnamed cell lines
The data set is described as follows: Calcium mobilization assay, agonist format, 5-HT2B receptor. The data set is classed as cell-based. To be noted: read-out: 5-HT2B agonist Efficacy @ 5 µM. As to the method:
(§1) Protocol—in vitro testing at select 5-hydroxytryptamine (5-HT; serotonin) receptors was conducted.
(§2) • 1. Cell lines were expanded from freezer stocks according to standard procedures. • 2. Cells were seeded in a total volume of 20 μL into black-walled, clear-bottom, Poly-D-lysine coated 384-well microplates and incubated at 37° C. for the appropriate time prior to testing.
(§3) • 1. Assays were performed in 1×Dye Loading Buffer consisting of 1× Dye, 1× Additive A and 2.5 mM Probenecid in HBSS/20 mM Hepes. Probenicid was prepared fresh. • 2. Cells were loaded with dye prior to testing. Media was aspirated from cells and replaced with 20 μL Dye Loading Buffer. • 3. Cells were incubated for 30-60 minutes at 37° C.
(§4) • 1. For agonist determination, cells were incubated with sample to induce response. • 2. After dye loading, cells were removed from the incubator and 10 μL HBSS/20 mM Hepes was added. 3× vehicle was included in the buffer when performing agonist dose curves to define • the EC80 for subsequent antagonist assays. Cells were incubated for 30 minutes at room temperature in the dark to equilibrate plate temperature. • 3. Intermediate dilution of sample stocks was performed to generate 4× sample in assay buffer. • 4. Compound agonist activity was measured on a FLIPR Tetra (MDS). Calcium mobilization was monitored for 2 minutes and 10 μL 4× sample in HBSS/20 mM Hepes was added to the cells 5 seconds into the assay.
(§5) • 1. Compound activity was analyzed using CBIS data analysis suite (ChemInnovation, CA). • 2. For agonist mode assays, percentage activity is calculated using the following formula: % Activity=100%×(mean RFU of test sample−mean RFU of vehicle control)/(mean MAX RFU control ligand −mean RFU of vehicle control). • 3. For positive allosteric mode assays, percentage modulation was calculated using the following formula: % Modulation=100%×((mean RFU of test sample−mean RFU of EC20 control)/(mean RFU of MAX control ligand −mean RFU of EC20 control)). • 4. For antagonist and negative allosteric modulation mode assays, percentage inhibition is calculated using the following formula: % Inhibition=100%×(1−(mean RFU of test sample−mean RFU of vehicle control)/(mean RFU of EC80 control−mean RFU of vehicle control)).
(§6) As discussed above, agonism, or partial agonism, of the 5-HT2A receptor (also known as positive allosteric modulation, or 5-HT2A modulation) is useful for the treatment of neurological and psychiatric disorders. For example, 5-HT2A agonism has been correlated with the promotion of neural plasticity (Ly et al., 2018). Agonism of the 5-HT2B receptor has been associated with unwanted cardiac valvulopathy side-effects, a form of cardio-toxicity (Rothman et al., Circulation. 2000, 102, 2836-2841; Fitzgerald et al., Molecular Pharmacology 2000, 57, 75-81). […] Antagonists of the 5-HT2C receptor are also useful for the treatment of neurological and psychiatric disorders (Kennett et al., Neuropharmacology 1997, 36, 609-620).

Another data set deals with T2, 5-HT2A receptor (Homo sapiens, UniProt P28223).
T2 construct: host or cells: unnamed cell lines
The data set is described as follows: Calcium mobilization assay, agonist format, 5-HT2A receptor. To be noted: read-out: 5-HT2A agonist Efficacy @ 10 µM. The data set is classed as cell-based. Here is the method: as §1, §2, §3, §4, §5, §6
Background: A change in cytosolic calcium serves as a functional read-out for many receptors and channels.

The target of the next data set is T3, 5-HT2C receptor (Homo sapiens, UniProt P28335).
T3 construct: host or cells: unnamed cell lines
T3 sequence (P28335 33-458): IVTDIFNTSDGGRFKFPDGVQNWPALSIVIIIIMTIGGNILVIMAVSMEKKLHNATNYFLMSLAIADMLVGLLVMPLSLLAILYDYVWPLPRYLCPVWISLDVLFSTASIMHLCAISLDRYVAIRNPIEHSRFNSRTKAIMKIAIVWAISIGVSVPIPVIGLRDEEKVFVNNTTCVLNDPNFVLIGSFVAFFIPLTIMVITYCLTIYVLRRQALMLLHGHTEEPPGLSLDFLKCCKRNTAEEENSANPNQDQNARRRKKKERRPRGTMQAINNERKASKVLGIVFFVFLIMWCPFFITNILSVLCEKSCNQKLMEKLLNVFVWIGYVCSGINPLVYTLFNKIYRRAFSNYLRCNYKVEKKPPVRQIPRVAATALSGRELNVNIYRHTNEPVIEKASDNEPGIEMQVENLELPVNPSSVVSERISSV
The data set is described as follows: Calcium mobilization assay, antagonist format, 5-HT2C receptor. The arrangement: dose or concentration left out as unconfirmed. The data set is classed as cell-based. As to the method:
as §1, §2, §3
• 1. For antagonist determination, cells were pre-incubated with sample followed by agonist challenge at the EC80 concentration. • 2. Intermediate dilution of sample stocks was performed to generate 3× sample in assay buffer. • 3. After dye loading, cells were removed from the incubator and […] 3× sample was added. Cells were incubated for 30 minutes at room temperature in the dark to equilibrate plate temperature. Vehicle concentration was 1%. • 4. Compound antagonist activity was measured on a FLIPR Tetra (MDS). Calcium mobilization was monitored for 2 minutes and 10 μL EC80 agonist in HBSS/20 mM Hepes was added to the cells 5 seconds into the assay.
as §5, §6

Data set [1] in a line: Metabolic stability in human liver microsomes. The data set is classed as in vitro ADME. To be noted: for half-life at 0.2 μM: pH 7.4, half life; for half-life at 0.2 μM / microsomal CLint at 0.2 μM / CLint scaled at 0.2 μM: values marked * average of two experiments; for microsomal CLint at 0.2 μM: pH 7.4, intrinsic clearance, read-out: CLint(mic); for CLint scaled at 0.2 μM: pH 7.4, scaled from CLint(mic); for difference in half-life and intrinsic clearance versus comparator: Compound 163 vs 8-methoxy-1,2,3,4,5,6-hexahydroazepino[4,5-b]indole, Compounds 1, 2 and 3 vs TBG. As to the method:
Microsomal Assay: Human liver microsomes (20 mg/mL) are obtained from Xenotech, LLC (Lenexa, KS). β-nicotinamide adenine dinucleotide phosphate, reduced form (NADPH), magnesium chloride (MgCl2), and dimethyl sulfoxide (DMSO) are purchased from Sigma-Aldrich.
Determination of Metabolic Stability: 7.5 mM stock solutions of test compounds of the above structural formula (e.g., of an embodiment or aspect of embodiment thereof described herein), or pharmaceutically acceptable salt thereof, are prepared in DMSO. […] The diluted microsomes are added to wells of a 96-well deep-well polypropylene plate in triplicate. […] Reactions are initiated by addition of pre-warmed NADPH solution. The final reaction volume is 0.5 mL and contains 4.0 mg/mL human liver microsomes, 0.2 μM test compound, and 2 mM NADPH in 0.1 M potassium phosphate buffer, pH 7.4, and 3 mM MgCl2. The reaction mixtures are incubated at 37° C., and […] aliquots are removed at 0, 5, 10, 20, and 30 minutes and added to shallow-well 96-well plates which contain […] of ice-cold ACN (acetonitrile) with internal standard to stop the reactions. The plates are stored at 4° C. for 20 minutes after which […] of water is added to the wells of the plate before centrifugation to pellet precipitated proteins. Supernatants are transferred to another 96-well plate and analyzed for amounts of parent remaining by LC-MS/MS using an Applied Bio-systems API 4000 mass spectrometer. The same procedure is followed for the non-deuterated counterpart of the compound and the positive control, 7-ethoxycoumarin (1 μM). Testing is done in triplicate.
Data analysis: The in vitro Ti/s for test compounds are calculated from the slopes of the linear regression of % parent remaining (In) vs incubation time relationship.
[formula] • k=−[slope of linear regression of % parent remaining (In) vs incubation time] • The apparent intrinsic clearance is calculated using the following equation: […]
Data analysis is performed using Microsoft Excel Software.

T2 sequence (P28223 whole entry): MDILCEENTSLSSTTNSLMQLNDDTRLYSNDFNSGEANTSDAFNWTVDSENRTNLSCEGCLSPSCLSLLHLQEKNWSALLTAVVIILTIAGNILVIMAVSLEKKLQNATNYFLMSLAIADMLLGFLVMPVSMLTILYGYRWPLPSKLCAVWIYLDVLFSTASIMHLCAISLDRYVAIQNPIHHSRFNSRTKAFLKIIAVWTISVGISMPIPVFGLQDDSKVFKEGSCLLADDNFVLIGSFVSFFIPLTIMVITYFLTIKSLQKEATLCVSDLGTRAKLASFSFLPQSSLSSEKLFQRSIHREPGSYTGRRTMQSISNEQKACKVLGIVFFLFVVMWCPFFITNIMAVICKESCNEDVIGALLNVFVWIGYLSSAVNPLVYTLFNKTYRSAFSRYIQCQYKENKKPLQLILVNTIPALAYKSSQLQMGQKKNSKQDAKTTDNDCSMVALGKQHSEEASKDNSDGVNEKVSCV
T1 sequence (P41595 whole entry): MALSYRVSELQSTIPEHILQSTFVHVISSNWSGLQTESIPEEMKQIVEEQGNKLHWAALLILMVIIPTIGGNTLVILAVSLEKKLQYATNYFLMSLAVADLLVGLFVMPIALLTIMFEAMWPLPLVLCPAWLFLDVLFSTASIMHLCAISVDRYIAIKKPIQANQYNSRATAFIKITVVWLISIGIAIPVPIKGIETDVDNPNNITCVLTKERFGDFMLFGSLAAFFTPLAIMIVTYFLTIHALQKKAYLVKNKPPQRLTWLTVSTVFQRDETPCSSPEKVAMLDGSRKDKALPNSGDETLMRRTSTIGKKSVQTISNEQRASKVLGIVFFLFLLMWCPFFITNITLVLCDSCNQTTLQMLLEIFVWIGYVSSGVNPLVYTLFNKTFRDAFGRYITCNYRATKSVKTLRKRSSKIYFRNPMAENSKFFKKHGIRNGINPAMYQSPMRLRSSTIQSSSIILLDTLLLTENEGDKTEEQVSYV

In the case of `COc1ccc2c3c([nH]c2c1)CCNCC3` [8-methoxy-1,2,3,4,5,6-hexahydroazepino[4,5-b]indole, reference compound], the activation at 5 µM on 5-HT2B receptor is 0.6%. At 5-HT2A receptor, the activation at 10 µM came out at 85.3%. The inhibition at 5-HT2C receptor was 98.1%. Moreover, in data set [1], the half-life at 0.2 μM turned out to be 1.82 h, the microsomal CLint at 0.2 μM was 12.7 µL/min/mg and the CLint scaled at 0.2 μM stood at 11.4 mL/min/kg.

Turning to `[2H]C([2H])([2H])Oc1ccc2c3c([nH]c2c1)CCN(C)CC3` [Compound 1, 3-methyl-8-(trideuteriomethoxy)-2,4,5,6-tetrahydro-1H-azepino[4,5-b]indole], the activation at 5 µM on 5-HT2B receptor is -8.3%. The activation at 10 µM at 5-HT2A receptor came to 30.4%. At 5-HT2C receptor, the inhibition worked out at 95.5%. Further, in data set [1], the “difference in half-life and intrinsic clearance versus comparator” value (“difference” for short) was “differences in half-life and intrinsic clearance”; the half-life at 0.2 μM is 1.35 h; the microsomal CLint at 0.2 μM amounted to 17.2 µL/min/mg; the CLint scaled at 0.2 μM was 15.4 mL/min/kg.

Consider `[2H]C([2H])([2H])N1CCc2[nH]c3cc(OC)ccc3c2CC1` [Compound 2, 8-methoxy-3-(trideuteriomethyl)-2,4,5,6-tetrahydro-1H-azepino[4,5-b]indole], for which the activation at 5 µM at 5-HT2B receptor was -0.4%. In addition, the activation at 10 µM at 5-HT2A receptor turned out to be 38%. Further, at 5-HT2C receptor, the inhibition was found to be 94.5%. For the same compound, in data set [1], the “difference” value is “differences in half-life and intrinsic clearance”; the half-life at 0.2 μM was 1.4 h; the microsomal CLint at 0.2 μM was determined as 16.6 µL/min/mg; the CLint scaled at 0.2 μM was found to be 14.9 mL/min/kg.

Consider `[2H]C([2H])([2H])Oc1ccc2c3c([nH]c2c1)CCN(C([2H])([2H])[2H])CC3` [Compound 3, 8-(trideuteriomethoxy)-3-(trideuteriomethyl)-2,4,5,6-tetrahydro-1H-azepino[4,5-b]indole], for which the activation at 5 µM at 5-HT2B receptor is -0.7%. Moreover, the activation at 10 µM at 5-HT2A receptor was determined as 40%. The inhibition on 5-HT2C receptor was 95%. Also, in data set [1], the “difference” value is “differences in half-life and intrinsic clearance”; the half-life at 0.2 μM was found to be 1.38 h; the microsomal CLint at 0.2 μM is 16.8 µL/min/mg; the CLint scaled at 0.2 μM was 15.1 mL/min/kg.

For the compound `[2H]C([2H])([2H])Oc1ccc2c3c([nH]c2c1)CCNCC3` [Compound 163, 8-(trideuteriomethoxy)-1,2,3,4,5,6-hexahydroazepino[4,5-b]indole], the activation at 5 µM at 5-HT2B receptor was -0.2%. Moreover, the activation at 10 µM on 5-HT2A receptor came out at 83%. For the same compound, the inhibition on 5-HT2C receptor is 97.7%. Also, in data set [1], the “difference” value is on record as “significant difference in half-life”; the half-life at 0.2 μM worked out at 1.44 h; the microsomal CLint at 0.2 μM stood at 16.1 µL/min/mg; the intrinsic clearance (CLint scaled) at 0.2 μM stood at 14.5 mL/min/kg. Further, in data set [1] (compared with 8-methoxy-1,2,3,4,5,6-hexahydroazepino[4,5-b]indole), the intrinsic clearance ratio is more than 1.15.

Take `COc1ccc2c3c([nH]c2c1)CCN(C)CC3` [TBG, 8-methoxy-3-methyl-1,2,3,4,5,6-hexahydroazepino[4,5-b]indole, reference compound]: the activation at 5 µM on 5-HT2B receptor was -0.9%. At 5-HT2A receptor, the activation at 10 µM amounted to 38.5%. Besides, at 5-HT2C receptor, the inhibition was determined as 94.7%. Moreover, in data set [1], the half-life at 0.2 μM amounted to 1.5 h, the microsomal CLint at 0.2 μM amounted to 15.6 µL/min/mg and the CLint scaled at 0.2 μM amounted to 14 mL/min/kg.
